From publication PMC3302575 (Biochemistry, 2011)

Key:
Experiment in all cases: copurification, absorption spectroscopy of native protein
Format in all cases: binding
[1] = molecular target: Drosophila cryptochrome (DmCRY) (Drosophila melanogaster, UniProt O77059); details: Sf21 medium with or without F0; pH 7.5
[2] = molecular target: T1, zebrafish CRY4 (ZfCRY4) (Danio rerio, UniProt Q9I912); details: Sf21 medium with or without F0; pH 7.5
T1 sequence (Q9I912 1-558): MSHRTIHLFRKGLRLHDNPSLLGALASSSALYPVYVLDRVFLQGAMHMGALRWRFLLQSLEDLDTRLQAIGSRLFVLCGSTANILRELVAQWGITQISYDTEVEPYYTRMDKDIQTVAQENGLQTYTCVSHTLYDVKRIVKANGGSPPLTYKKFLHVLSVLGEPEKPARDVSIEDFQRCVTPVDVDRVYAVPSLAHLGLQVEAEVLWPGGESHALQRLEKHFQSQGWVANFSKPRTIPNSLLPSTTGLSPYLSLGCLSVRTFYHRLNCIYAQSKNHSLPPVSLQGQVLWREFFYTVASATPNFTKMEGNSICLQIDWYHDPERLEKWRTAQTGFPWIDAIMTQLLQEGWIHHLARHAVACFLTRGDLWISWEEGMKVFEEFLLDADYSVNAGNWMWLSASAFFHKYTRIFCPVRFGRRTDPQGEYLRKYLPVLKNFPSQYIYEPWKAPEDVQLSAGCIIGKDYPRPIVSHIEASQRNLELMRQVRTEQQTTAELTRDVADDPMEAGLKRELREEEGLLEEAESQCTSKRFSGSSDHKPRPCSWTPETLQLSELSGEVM

[3] = molecular target: A. thaliana CRY2 (AtCRY2) (Arabidopsis thaliana, UniProt Q96524); details: Sf21 medium with or without F0; pH 7.4
Sequence of A. thaliana CRY2 (AtCRY2) (Q96524 whole entry): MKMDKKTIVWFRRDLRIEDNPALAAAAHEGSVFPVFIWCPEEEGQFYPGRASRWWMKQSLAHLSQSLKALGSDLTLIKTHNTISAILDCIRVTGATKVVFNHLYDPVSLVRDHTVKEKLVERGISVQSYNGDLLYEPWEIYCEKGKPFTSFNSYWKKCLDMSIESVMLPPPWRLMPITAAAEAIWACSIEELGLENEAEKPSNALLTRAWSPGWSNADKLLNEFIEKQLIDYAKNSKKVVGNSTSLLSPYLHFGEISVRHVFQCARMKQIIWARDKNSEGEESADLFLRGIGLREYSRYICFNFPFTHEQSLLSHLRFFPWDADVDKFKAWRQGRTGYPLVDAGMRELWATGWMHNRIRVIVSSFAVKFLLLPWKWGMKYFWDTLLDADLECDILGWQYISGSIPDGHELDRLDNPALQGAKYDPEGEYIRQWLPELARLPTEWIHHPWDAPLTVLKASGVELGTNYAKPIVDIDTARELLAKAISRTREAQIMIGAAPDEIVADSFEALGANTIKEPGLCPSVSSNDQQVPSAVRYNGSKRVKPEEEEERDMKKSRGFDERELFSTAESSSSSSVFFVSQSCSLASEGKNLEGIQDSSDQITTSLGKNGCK

Sequence of Drosophila cryptochrome (DmCRY) (O77059 whole entry): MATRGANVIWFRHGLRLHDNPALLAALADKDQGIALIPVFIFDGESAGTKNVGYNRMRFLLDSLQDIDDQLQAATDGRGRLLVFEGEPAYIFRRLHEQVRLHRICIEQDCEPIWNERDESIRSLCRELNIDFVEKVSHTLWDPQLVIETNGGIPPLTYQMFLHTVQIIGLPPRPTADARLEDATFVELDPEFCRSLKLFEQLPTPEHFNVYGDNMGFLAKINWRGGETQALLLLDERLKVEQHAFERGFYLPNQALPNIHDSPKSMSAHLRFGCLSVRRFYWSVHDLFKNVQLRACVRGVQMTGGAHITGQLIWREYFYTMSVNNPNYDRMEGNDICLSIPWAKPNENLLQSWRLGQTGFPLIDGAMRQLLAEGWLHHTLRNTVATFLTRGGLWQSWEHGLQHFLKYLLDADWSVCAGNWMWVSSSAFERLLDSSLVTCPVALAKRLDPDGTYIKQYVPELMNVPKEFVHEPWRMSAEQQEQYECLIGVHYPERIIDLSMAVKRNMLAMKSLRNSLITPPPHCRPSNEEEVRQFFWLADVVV

Structure (SMILES): Cc1cc2nc3c(=O)[nH]c(=O)nc-3n(C[C@H](O)[C@H](O)[C@H](O)COP(=O)(O)OP(=O)(O)OC[C@H]3O[C@@H](n4cnc5c(N)ncnc54)[C@H](O)[C@@H]3O)c2cc1C [FAD]
- copurification, absorption spectroscopy of native protein [1]: exhibited only the spectra of enzyme-bound FAD (Fig. 4E,F)
- copurification, absorption spectroscopy of native protein [2]: both AtCRY2 (A,B) and ZfCRY4 (C,D), expressed with and without F0, contained FAD
- copurification, absorption spectroscopy of native protein [3]: both AtCRY2 (A,B) and ZfCRY4 (C,D), expressed with and without F0, contained FAD
